The source of these data is patent publication US20080312164A1 (priority 2006, published 2008).

The subject of test [1] is NmuMG mouse mammary normal epithelial cells. In words: Cell Titer-Glo cytotoxicity assay, NmuMG. Conditions: Mus musculus, Epithelial cell; NmuMG, Cell Titer-Glo, 72 h; read-out: IC50. It counts as cell-based. An excerpt: (§1) Five serial 1:2 dilutions were made with anhydrous DMSO at 100× the final concentration used in the assay.
Test [2] relates to MCF7 cells. Nature of the test: Cell Titer-Glo cytotoxicity assay, MCF7. It counts as cell-based, human. Conditions: Homo sapiens; MCF7, Cell Titer-Glo, 72 h; read-out: IC50.
Excerpt: as §1

Test [3] concerns NCI/ADR RES cells. Nature of the test: Cell Titer-Glo cytotoxicity assay, NCI/ADR-RES. It counts as cell-based, human. To be noted: Homo sapiens; NCI/ADR-RES, Cell Titer-Glo, 72 h; read-out: IC50.
Excerpt: as §1

Test [4] relates to NCI/ADR RES cells. Nature of the test: Calcein AM cytotoxicity assay, NCI/ADR-RES. It counts as cell-based. Conditions: Homo sapiens, Calcein AM, 72 h, read-out: IC50.
Excerpt: as §1

In test [5] the test system is Hep3B cells. Nature of the test: Cell Titer-Glo cytotoxicity assay, Hep3B. To be noted: Homo sapiens, Cell Titer-Glo, 72 h, read-out: IC50. It counts as cell-based.
Excerpt: as §1

Test [6] has as its system human cancer cell lines. Nature of the test: Cytotoxicity across the panel of human cancer cell lines (average, high-throughput assays). It counts as cell-based.
Excerpt: as §1

For test [7], the system named is NCI-H460 cells. Nature of the test: Cell Titer-Glo cytotoxicity assay, NCI-H460. Format: cell-based, human. To be noted: Homo sapiens; NCI-H460, Cell Titer-Glo, 72 h; read-out: IC50.
Excerpt: as §1

Test [8] relates to HCT-116 cells. In words: Calcein AM cytotoxicity assay, HCT-116. To be noted: Homo sapiens; HCT-116, Calcein AM, 72 h; read-out: IC50. It counts as cell-based.
Excerpt: as §1

For test [9], the system named is NmuMG mouse mammary normal epithelial cells. In words: Calcein AM cytotoxicity assay, NmuMG. To be noted: Epithelial cell, NmuMG, Calcein AM, 72 h, read-out: IC50. Format: cell-based.
Excerpt: as §1

For test [10], the system named is SF-268 cells. In words: Calcein AM cytotoxicity assay, SF-268. It counts as cell-based. To be noted: Homo sapiens; SF-268, Calcein AM, 72 h; read-out: IC50.
Excerpt: as §1

Test [11] concerns MCF7 cells. Nature of the test: Calcein AM cytotoxicity assay, MCF7. It counts as cell-based. To be noted: Homo sapiens; MCF7, Calcein AM, 72 h; read-out: IC50.
Excerpt: as §1

The test system of test [12] is SK-OV-3 cells. In words: Cell Titer-Glo cytotoxicity assay, SK-OV-3. Format: cell-based. To be noted: Homo sapiens; SK-OV-3, Cell Titer-Glo, 72 h; read-out: IC50.
Excerpt: as §1

For test [13], the system named is SK-OV-3 cells. Nature of the test: Calcein AM cytotoxicity assay, SK-OV-3. Format: cell-based. To be noted: Homo sapiens; SK-OV-3, Calcein AM, 72 h; read-out: IC50.
Excerpt: as §1

Test [14] deals with HT-29 cells. Nature of the test: MTT cytotoxicity assay, HT-29. To be noted: Homo sapiens; HT-29, MTT, 24 h; read-out: IC50. It counts as cell-based.
Excerpt: The IC50 value for each library member represents at least twelve replicates of dose-response experiments conducted over five concentrations. […] In this assay, live cells were distinguished by the intracellular enzymatic activity that converts the cell-permeable molecule MTT to strongly colored formazan crystals, which are retained within live cells and absorb light at 570 nm.
MTT Cytotoxicity Assay. HT-29 cell lines were maintained in RPMI medium 1640 supplemented with 10% (wt/vol) FBS and 1% penicillin-streptomycin (PS) (100 units/mL and 100 μg/mL). Cells were harvested by trypsinization using 0.25% trypsin and 0.1% EDTA and plated at a density of 2,000-5,000 cells per well of each 96-well microtiter plate. Cells were grown for 24 h at 37° C., with 5% CO2/95% air in a humidified incubator to allow cell attachment to occur before compound addition. Library members were stored at −20° C. under desiccating conditions before the assay. Library member stocks (1000×) were prepared in falcon tubes (BD Biosciences). Five dilutions were made with DMSO at 1000× the final concentration used in the assay. The 1000× stocks (3 μL) were diluted with complete culture medium (3 mL). Each plate contained twelve replicates of cells treated with 0.1% DMSO in complete cell culture medium that served as an individual negative control. Library member stocks (1×, 200 μL) were added to aspirated cells and replicated twelve times on each plate. Cells were incubated with the library members for 24 h before optical density reading. Test plates were removed from the incubator and washed once in sterile PBS to remove serum containing library members. Freshly-made 10×MTT solution in sterile PBS (5 mg/mL) was diluted 1:10 in serum-free culture medium and was sterilized using a 0.2 μm filter. Diluted MTT solution (1×, 50 μL) was added to each well and the plates were incubated in the dark for 2 h. Test plates were centrifuged at 1800×g for 5 min at 4° C. using a Beckman GPR centrifuge. MTT solution was removed by aspiration and 100 μL DMSO was added to each well to lyse cells and solubilize formazan crystals. Test plates were incubated in the dark at room temperature for 10 min. Plates were read for optical density at 570 nm.
IC50 Calculations. For each library member, at least three dose-response experiments were conducted on separate plates. […] To calculate IC50, percent inhibitions were plotted as a function of log[concentration] and then fit to a four-parameter logistic model that allowed for a variable Hill slope by using XLFIT 4.1 (ID Business Solutions, Emeryville, Calif.).
The subject of test [15] is SF-268 cells. Nature of the test: Cell Titer-Glo cytotoxicity assay, SF-268. Format: cell-based. To be noted: Homo sapiens; SF-268, Cell Titer-Glo, 72 h; read-out: IC50.
Excerpt: as §1

The test system of test [16] is NCI-H460 cells. In words: Calcein AM cytotoxicity assay, NCI-H460. Format: cell-based. To be noted: Homo sapiens; NCI-H460, Calcein AM, 72 h; read-out: IC50.
Excerpt: as §1

Test [17] relates to NmuMG Cell Line. Nature of the test: Cytotoxicity in NmuMG cell line, summary table (assay not stated). Format: cell-based. To be noted: Mus musculus, assay not stated (mostly Cell Titer-Glo values; Calcein AM values for 20, 24, 39).
Excerpt: as §1

Test [18] deals with Du145 cells. In words: Cell Titer-Glo cytotoxicity assay, Du145. Format: cell-based. Conditions: Homo sapiens, DU-145; Du145, Cell Titer-Glo, 72 h; read-out: IC50.
Excerpt: as §1

In test [19] the test system is HCT-116 cells. Nature of the test: Cell Titer-Glo cytotoxicity assay, HCT-116. Format: cell-based. To be noted: Homo sapiens; HCT-116, Cell Titer-Glo, 72 h; read-out: IC50.
Excerpt: as §1

Test [20] concerns Hep3B cells. Nature of the test: Calcein AM cytotoxicity assay, Hep3B. Format: cell-based. Conditions: Homo sapiens, Calcein AM, 72 h, read-out: IC50.
Excerpt: as §1

In test [21] the test system is Du145 cells. In words: Calcein AM cytotoxicity assay, Du145. Format: cell-based. Conditions: Homo sapiens, DU-145; Du145, Calcein AM, 72 h; read-out: IC50.
Excerpt: as §1

The subject of test [22] is HCT-116 cells. To be noted: literature (27, 35); cited from earlier work.
For test [23], the system named is several cell lines. Conditions: reported; cited from earlier work.
Where [24] appears, read: average across eight human cancer cell lines, MTT (HT-29) values excluded, read-out: Cancerous Average IC50 / Average IC50 in Cancer Cell Lines.
[25] abbreviates: average across eight human cancer cell lines, MTT (HT-29) values excluded.

SMILES strings stand for the structures. Where two headings read alike, the source gives them in different places. Marks after values point to notes of the source that are not given here. Some results are limits rather than exact numbers.

For `Cc1c(N=C=S)c(=O)n(-c2ccccc2)n1C` [Compound 37, 4-isothiocyanato-2,3-dimethyl-1-phenyl-1,2-dihydropyrazol-5-one], the IC50 in test [1] was above 200 µM; in test [2], above 50 µM; in test [3], above 50 µM; in test [4], above 50 µM; in test [5] it was above 50 µM; in [6] (setting [24]) it was above 50 µM. Besides, the IC50 in test [7] was above 50 µM; in test [8] it was above 50 µM; in test [9] it was above 200 µM; in test [10], above 50 µM; in test [11], above 50 µM; in [12], above 50 µM. The IC50 in test [13] was above 50 µM; in [14] it was above 50 µM; in [15], above 50 µM; in [16], above 50 µM; in [17], above 200 µM; in [18], above 50 µM. The IC50 in test [19], in [20] and in test [21] was above 50 µM each time.

Take `S=C=Nc1ccc(Br)cc1` [Compound 20, 1-bromo-4-isothiocyanatobenzene]: the IC50 in test [1] was 21.4 µM; in test [2], 17.1 µM; in test [3], 23.1 µM; in test [4] it was above 50 µM; in test [5], above 50 µM; in test [6] (setting [24]), above 50 µM. Also, the IC50 is 10.4 µM in test [7]; above 50 µM in test [8]; 183 µM in test [9]; above 50 µM in test [10]; 26.7 µM in test [11]; 19.6 µM in [12]. Besides, the IC50 in test [13] is above 50 µM; in [14], above 50 µM; in test [15] it was 24.9 µM; in test [16], above 50 µM; in [17], 183 µM; in test [18], 41.4 µM. The IC50 in test [19] was 21.6 µM; in test [20] it was above 50 µM; in test [21], above 50 µM. For the same molecule, the “Cancerous Average IC50 / Average IC50 in Cancer Cell Lines” value in test [6] (setting [25]) was >50.00^e μM.

Regarding `O=C(CCCCCCC(=O)Nc1cccnc1)NO` [Compound 7, pyroxamide], the IC50 in [22] was 6.5 ± 0.5 µM; in test [23], 1 to 20 µM.

`S=C=NCc1ccco1` [Compound 24, 2-(isothiocyanatomethyl)furan]: the IC50 in [1] is above 200 µM; in test [2], above 50 µM; in test [3], above 50 µM; in test [4], 21.6 µM; in test [5] it was above 30 µM; in [6] (setting [24]), above 50 µM. The IC50 was above 50 µM in test [7]; above 50 µM in test [8]; 151 µM in test [9]; above 50 µM in test [10]; above 50 µM in test [11]; above 50 µM in [12]. Moreover, the IC50 in [13] was above 30 µM; in [14], above 50 µM; in test [15], above 50 µM; in test [16], above 50 µM; in test [17] it was 151 µM; in [18] it was above 50 µM. Besides, the IC50 in [19] was above 50 µM; in test [20], above 30 µM; in test [21], above 50 µM.

Regarding `S=C=NCc1ccccc1-c1ccccc1` [Compound 33, 1-(isothiocyanatomethyl)-2-phenylbenzene], the IC50 in test [1] is 80.1 µM; in test [2] it was 3.63 µM; in test [3], 4.11 µM; in [4], 4.12 µM; in [5] it was 4.24 µM; in [6] (setting [24]), 4.96 µM. For the same molecule, the IC50 in test [7] is 8.95 µM; in test [8] it was 5.56 µM; in [9] it was below 12.5 µM; in test [10] it was 4.79 µM; in test [11], 1.6 µM; in [12], 5.01 µM. The IC50 was 5.93 µM in test [13]; 39.9 µM in [14]; 6.39 µM in [15]; 6.44 µM in test [16]; 180 µM in [17]; 5.25 µM in [18]. The IC50 in [19] is 4.64 µM; in test [20], 10.6 µM; in test [21], 3.16 µM. In addition, the “selectivity for cancer cells over NmuMG cells” value in test [6] (IC50 in NmuMG versus average IC50 in cancer cell lines) was 36.3 fold. Further, the “further fold increase in potency from multiple phenyl rings” value in test [6] (average IC50 compared with single-ring 23 and 38) is on record as around 2 fold.

Consider `CC(C)CN=C=S` [Compound 15, 1-isothiocyanato-2-methylpropane], for which the IC50 is above 200 µM in [1]; above 50 µM in test [2]; above 50 µM in [3]; above 50 µM in [4]; above 30 µM in test [5]; above 50 µM in test [6] (Homo sapiens, Calcein AM and CellTiter Glo, all cell lines (FIG. 3 legend), read-out: IC50, all cell lines). The IC50 in [6] (setting [24]) was above 50 µM; in test [7], above 50 µM; in [8] it was 27.6 µM; in [9] it was above 200 µM; in test [10] it was above 50 µM; in test [11] it was above 50 µM. Moreover, the IC50 in test [12] was above 50 µM; in test [13] it was above 50 µM; in [14], above 50 µM; in [15] it was above 50 µM; in test [16], above 50 µM; in test [17], above 200 µM. Also, the IC50 was above 50 µM in test [18], above 50 µM in test [19], 32.8 µM in [20] and above 50 µM in [21]. Further, in test [6] (setting [25]), the “Cancerous Average IC50 / Average IC50 in Cancer Cell Lines” value is listed as >50.00^b μM.

On to `S=C=NCCC1=CCCCC1` [Compound 39, 1-(2-isothiocyanatoethyl)cyclohex-1-ene], for which the IC50 in test [1] was above 200 µM; in test [2], 19.8 µM; in test [3], 26.9 µM; in test [4], 12.2 µM; in test [5], 16.1 µM; in [6] (setting [24]), 18.3 µM. The IC50 in test [7] is 36.4 µM; in test [8] it was 19 µM; in [9], 13 µM; in test [10], 3.89 µM; in [11], 27.5 µM; in test [12] it was 24.1 µM. In addition, the IC50 in test [13] is 19.5 µM; in test [14], 45.3 µM; in [15], 13.6 µM; in test [16] it was 28.6 µM; in test [17], 13 µM; in test [18], 18.6 µM. The IC50 in [19] is 16.4 µM; in [20], 28.5 µM; in test [21] it was 25.5 µM.
